Like-named read-outs stand apart in the source and are kept apart here.
Columns and labels:
[1] = biological target: T1, (H+/K+)-ATPase (Canis lupus familiaris, UniProt P50996); experiment: Inhibition of (H+/K+)-ATPase from canine gastric mucosa (inorganic phosphate release); format: biochemical; details: canine gastric mucosa microsomes, pH 6.0, 30 min preincubation at 37° C.; read-out: (H+/K+)-ATPase IC50
T1 construct: The microsomes retained at the 15%-30% sucrose interface, after centrifugation at 250,000×g for sixty minutes, were used as the source of (H^+/K^+)-ATPase; from tissue; host or cells: gastric glandular mucosa of mongrel dogs (microsomal fraction, lyophilized)
T1 sequence (P50996 whole entry): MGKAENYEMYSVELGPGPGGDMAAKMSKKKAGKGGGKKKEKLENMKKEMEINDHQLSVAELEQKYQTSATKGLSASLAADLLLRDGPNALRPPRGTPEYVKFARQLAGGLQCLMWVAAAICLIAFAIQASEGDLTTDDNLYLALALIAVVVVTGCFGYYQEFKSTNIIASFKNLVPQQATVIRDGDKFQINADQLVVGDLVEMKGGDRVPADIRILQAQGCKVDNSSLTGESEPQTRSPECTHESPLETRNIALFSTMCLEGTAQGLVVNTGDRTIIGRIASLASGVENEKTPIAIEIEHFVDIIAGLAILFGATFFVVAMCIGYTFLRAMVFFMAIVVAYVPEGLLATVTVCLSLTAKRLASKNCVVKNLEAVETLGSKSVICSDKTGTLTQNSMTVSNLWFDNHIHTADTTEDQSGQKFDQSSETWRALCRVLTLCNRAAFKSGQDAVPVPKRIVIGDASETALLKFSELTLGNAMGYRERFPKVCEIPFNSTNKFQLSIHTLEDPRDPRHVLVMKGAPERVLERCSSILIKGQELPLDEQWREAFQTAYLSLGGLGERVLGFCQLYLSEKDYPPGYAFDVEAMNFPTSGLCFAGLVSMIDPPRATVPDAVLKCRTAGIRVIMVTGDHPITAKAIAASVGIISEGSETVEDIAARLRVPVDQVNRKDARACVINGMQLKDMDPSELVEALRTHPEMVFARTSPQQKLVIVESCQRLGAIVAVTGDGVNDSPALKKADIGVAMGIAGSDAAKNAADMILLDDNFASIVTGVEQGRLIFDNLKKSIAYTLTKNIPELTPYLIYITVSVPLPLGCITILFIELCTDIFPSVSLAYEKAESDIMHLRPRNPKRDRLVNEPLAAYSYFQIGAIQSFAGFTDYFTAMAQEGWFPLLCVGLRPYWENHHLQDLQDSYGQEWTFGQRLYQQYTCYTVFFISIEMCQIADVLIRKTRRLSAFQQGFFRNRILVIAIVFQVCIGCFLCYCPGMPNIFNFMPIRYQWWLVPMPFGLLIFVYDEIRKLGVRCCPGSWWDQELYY
T1 sequence (P33704 whole entry partner): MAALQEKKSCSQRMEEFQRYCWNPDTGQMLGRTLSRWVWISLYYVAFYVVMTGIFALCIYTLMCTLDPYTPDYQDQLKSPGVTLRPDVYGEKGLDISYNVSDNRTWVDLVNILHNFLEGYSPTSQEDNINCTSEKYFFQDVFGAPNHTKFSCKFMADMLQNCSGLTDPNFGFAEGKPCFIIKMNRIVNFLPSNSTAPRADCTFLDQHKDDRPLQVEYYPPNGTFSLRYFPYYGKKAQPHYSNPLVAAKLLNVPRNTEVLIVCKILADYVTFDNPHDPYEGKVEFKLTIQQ
Outline: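 Lyophilised gastric microsomes (sucrose-gradient 15%/30% interface fraction from dog mucosa, ~25 mcg protein) preincubated with compound 30 min at 37° C in 20 mM MES-Tris pH 6.0, 5 mM MgCl2, 25 mM sucrose, then 30 min more after 4 mM Tris-ATP. Released phosphate read by molybdate/ascorbate at 870 nm; activity = K+-stimulated (20 mM KCl) minus basal.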

[2] = system: gastric acid secretion; experiment: Inhibition of gastric acid secretion in gastric fistula beagle dogs (histamine-stimulated); format: in vivo; details: Canis lupus familiaris, 4 h, histamine-stimulated, four-hour period, read-out: Gastric-Fistula Beagle % Inhibition (3 mg/kg dose)
Excerpt: Adult female beagle dogs weighing 6 to 11 kilograms obtained from Laboratory Research Enterprises (Kalamazoo, Mich.) or from Hazelton Research Animals (Cumberland, Va.) were surgically implanted with a simple Thomas-type gastric cannula. After recovery from surgery, the dogs were trained to stand quietly, fully conscious, in Pavlov-type dog restraining slings and were acclimated to intravenous infusion of histamine dihydrochloride. During the course of these studies, no dog was used more than once a week. All dogs were deprived of food, but not water, for 18 hours prior to each assay. Each dog was initially infused with 0.15 M sodium chloride solution at a constant rate of […]. The volume of gastric secretions, collected in plastic bottles affixed to the cannula, were measured to the nearest 0.1 ml at 30 minute intervals. One of the following protocols was followed, depending on the route chosen for administration of test compound.
Intravenous dosing: Following a 30-minute basal secretion period, test compounds were administered intravenously (i.v.). At the end of an additional 30 minute period, the saline infusion was replaced with histamine dihydrochloride in saline administered at a rate 15 mcg per kilogram of body weight per hour. Histamine stimulation was maintained for a maximum of four hours during which time gastric secretions were collected every 30 minutes. The pH and titratable acidity were determined for samples from each collection period.
Intragastric dosing: Following a 30-minute basal secretion period, he collection bottles were removed, dosing plugs here inserted, and test compounds were administered intragastrically (i.g.) At the end of a 30-minute drug absorption period, the stomachs were emptied, the collection bottles were reattached, and collections were resumed at 30-minute intervals. Simultaneously, the saline infusion was replaced with a continuous intravenous infusion of histamine dihydrochloride in saline administered for four hours at a rate 15 mcg per kilogram of body weight per hour.
Intraduodenal dosing: Dogs were also equipped with duodenal cannulas for intraduodenal (i.d.) administration of test compounds. Dosing was otherwise performed as described for intragastric dosing.
Data from each protocol were analyzed for three gastric sample variables: volume of gastric juice, acid concentration, and total acid output. Percent inhibition for each four-hour experimental period was determined for each parameter by comparison with 3 to 4 controls in which […]. Estimates of ED50's were determined from dose response curves.

[3] = system: gastric acid secretion; experiment: Inhibition of gastric acid secretion in meal-stimulated Pavlov pouch dog; format: in vivo, beagle dogs; details: 3 mg/kg, four-hour period
Method: Adult female beagle dogs weighing 6 to 10 kilograms were obtained from Laboratory Research Enterprises (Kalamazoo, Mich.) or from Hazelton Research Animals (Cumberland, Va.). Surgical implantation of a Thomas-type gastric cannula into an innervated Pavlov pouch of each dog was performed by the method reported by L. Burrows et al., J. Surgical Res., 4, 147 (1964). After recovery from surgery, the dogs were trained to stand quietly, fully conscious, in Pavlov-type dog restraining slings. All dogs were deprived of food, but not water, for 24 hours prior to each assay. Basal acid secretion was measured by collecting from the cannulas for 30 minutes before dosing with a test compound. Solutions of the test compounds in iso-osmotic phosphate buffer (pH 7.4) were given either intravenously or directly into the Pavlov pouch. After 30 minutes the pouch was drained. The dogs were then fed 320 grams of dog food and gastric acid secretions were collected each half hour for four hours. Controls were determined in the same way except that only food (i.e., no test compound) was administered.
Data were analyzed for three different variables: volume of gastric juice, acid concentration, and total acid output. Percent inhibition for the four-hour experimental period was determined for each parameter by comparison with 3 to 4 controls. Estimates of ED50 were determined from dose response curves.

| IC50 [1] [nM] | melting point [°C] | SMILES | inhibition in vivo at 3 mg/kg ([2]; iv, 3 mg/kg i.v.) [%] | Pavlov-Pouch Dog % Inhibition (dose (mg/kg)) [3] | inhibition in vivo at 3 mg/kg ([2]; intraduodenal, 3 mg/kg i.d.) [%] | inhibition in vivo at 3 mg/kg ([2]; po, 3 mg/kg i.g.) [%] |
| --- | --- | --- | --- | --- | --- | --- |
| 700 | 107 to 109 | CN(C)c1ccccc1C[S+]([O-])c1nc2ccccc2[nH]1 (stereo not shown) [Example 4, 2-[(1H-Benzimidazol-2-ylsulfinyl)methyl]N,N-dimethylbenzenamine] | 14 | 3 (3 mg/kg) % | – | – |
| 4200 | 148 to 149 | COc1ccc2[nH]c([S+]([O-])Cc3cc(C)ccc3N)nc2c1 (stereo not shown) [Example 34, 2-[[(5-Methoxy-1H-benzimidazol-2-yl)sulfinyl]methyl]-4-methylbenzenamine] | 91 | 79 (3 mg/kg) % | 66 | 43 |
